Assay [1] concerns S. aureus ATCC 13709. Kind of assay: MIC, antibacterial potency, S. aureus. It is filed as cell-based. The following applies: S. aureus.
The subject of assay [2] is S. pneumoniae ATCC 51916. Put plainly: MIC, S. pneumoniae. It is filed as cell-based. The conditions noted are these: S. pneumoniae.

Each structure is given as a SMILES string. In brackets after ≈: the same amount, converted by molar mass. Some results are limits rather than exact numbers.

For the compound `CCc1[nH]c2nc(Sc3nc(C(=O)O)cs3)nc(NCCCNS(C)(=O)=O)c2c1Cl` [700,342], in assay [1], the MIC, SA was greater than 64 µg/mL. In assay [2], this compound gave an MIC Spn52 greater than 64 µg/mL.
In the case of `CCc1[nH]c2nc(Sc3nc(C(=O)O)cs3)nc(NCCCNC(=N)N)c2c1Cl.O=C(O)C(F)(F)F` [700,343], the MIC, SA in assay [1] is greater than 64 µg/mL. The same compound showed an MIC Spn52 in assay [2] greater than 64 µg/mL.
`CCc1[nH]c2nc(Sc3cnc4cccnc4n3)nc(N3CC(O)C3)c2c1Cl` [700,345] had an MIC, SA in assay [1] of no more than 0.5 µg/mL. In addition, the MIC Spn52 in assay [2] turned out to be 2 µg/mL (≈ 4.83 µM).
Taken in the same sequence, the figures for `CCc1[nH]c2nc(Sc3cnc4cccnc4n3)nc(N3CC(O)C3)c2c1Br` [700,346] were no more than 0.5 µg/mL and no more than 0.5 µg/mL.
Turning to `CCOc1nc(Sc2cc(=O)[nH]c(=O)[nH]2)nc2[nH]c(CC)c(Cl)c12` [700,347, 6-(5-chloro-4-ethoxy-6-ethyl-7H-pyrrolo[2,3-d]pyrimidin-2-ylthio)pyrimidine-2,4(1H,3H)-dione], the MIC, SA in assay [1] was determined as 1 µg/mL (≈ 2.72 µM). In assay [2], this compound registered an MIC Spn52 of 8 µg/mL (≈ 21.7 µM).
Regarding `CCOc1nc(Nc2nc(C(=O)O)cs2)nc2[nH]c(CC)c(Br)c12.O=C(O)C(F)(F)F` [700,350], the MIC, SA in assay [1] is 32 µg/mL. Besides, the MIC Spn52 in assay [2] stood at 64 µg/mL.
In the same order, the values of `Cc1[nH]c2nc(Sc3cnc4cccnc4n3)nc(N3CC(O)C3)c2c1C` [700,351] are greater than 64 µg/mL and greater than 64 µg/mL.
In the same order, the values of `CCc1[nH]c2nc(Sc3nc4ncccc4c(=O)[nH]3)nc(N3CC(O)C3)c2c1Cl` [700,353] are greater than 64 µg/mL and greater than 64 µg/mL.
In the same order, the values of `CCOc1nc(Nc2cccc(C(=O)O)c2)nc2[nH]c(CC)c(Br)c12.O=C(O)C(F)(F)F` [700,354] are 2 µg/mL and greater than 64 µg/mL.
With `CCc1[nH]c2nc(Sc3nc(-c4nnn[nH]4)cs3)nc(N3CC(O)C3)c2c1Cl.Cl.Cl.Cl.Cl` [700,355], the MIC, SA in assay [1] was greater than 64 µg/mL. This compound showed an MIC Spn52 in assay [2] greater than 64 µg/mL.
`CCc1[nH]c2nc(Sc3nc(C(=O)O)cs3)nc(N3CCN(C(C)=O)CC3)c2c1Cl.O=C(O)C(F)(F)F` [700,356] yielded an MIC, SA in assay [1] greater than 64 µg/mL. This compound also showed an MIC Spn52 in assay [2] greater than 64 µg/mL.
In turn, `CCc1[nH]c2nc(Sc3nc(C(=O)O)cs3)nc(N3CCC(=O)C3)c2c1Cl.O=C(O)C(F)(F)F` [700,357] returned an MIC, SA in assay [1] greater than 64 µg/mL. The same compound returned an MIC Spn52 in assay [2] greater than 64 µg/mL.
`CCc1[nH]c2nc(Sc3nc4ncccc4c(=O)[nH]3)nc(N3CC(O)C3)c2c1Br` [700,358]: the MIC, SA in assay [1] is greater than 64 µg/mL. In assay [2], this compound displayed an MIC Spn52 greater than 64 µg/mL.
Turning to `CCc1[nH]c2nc(Sc3cc(=O)[nH]c(=O)[nH]3)nc(N3CC(O)C3)c2c1Cl` [700,359], the MIC, SA in assay [1] was 2 µg/mL (≈ 5.07 µM). Besides, in assay [2], the MIC Spn52 worked out at 8 µg/mL (≈ 20.3 µM).
Consider `CCc1[nH]c2nc(Sc3cc(=O)[nH]c(=O)[nH]3)nc(N3CC(O)C3)c2c1Br` [700,360], for which the MIC, SA in assay [1] is no more than 0.5 µg/mL. In assay [2], this compound showed an MIC Spn52 of 2 µg/mL (≈ 4.55 µM).
`Cc1[nH]c2nc(Sc3cc(=O)[nH]c(=O)[nH]3)nc(N3CC(O)C3)c2c1Br` [700,362] registered an MIC, SA in assay [1] greater than 64 µg/mL. In assay [2], the MIC Spn52 was greater than 64 µg/mL.
Compound `CCOc1nc(Nc2cnc3ccccc3c2)nc2[nH]c(CC)c(Br)c12.O=C(O)C(F)(F)F` [700,363] registered an MIC, SA in assay [1] greater than 64 µg/mL. In assay [2], the MIC Spn52 is greater than 64 µg/mL.
On to `CCc1[nH]c2nc(Sc3nc(C(=O)NOC)cs3)nc(N3CCN(C(C)=O)CC3)c2c1Cl.O=C(O)C(F)(F)F` [700,364], for which the MIC, SA in assay [1] is 32 µg/mL. The compound further had an MIC Spn52 in assay [2] greater than 64 µg/mL.
The compound `CCc1[nH]c2nc(Sc3nc(C(=O)N4CCOCC4)cs3)nc(N3CCN(C(C)=O)CC3)c2c1Cl.O=C(O)C(F)(F)F` [700,365] gave an MIC, SA in assay [1] greater than 64 µg/mL. Further, the MIC Spn52 in assay [2] was greater than 64 µg/mL.
In the case of `CCc1[nH]c2nc(Sc3cc(-n4cccn4)nc(C)n3)nc(NCC3CCCO3)c2c1Cl` (stereo not drawn) [700,373], in assay [1], the MIC, SA is greater than 64 µg/mL. The compound further displayed an MIC Spn52 in assay [2] greater than 64 µg/mL.
The compound `CCc1[nH]c2nc(Cn3cncn3)nc(N3CCN(C(C)=O)CC3)c2c1Br` [700,374] registered an MIC, SA in assay [1] greater than 64 µg/mL. In assay [2], this compound gave an MIC Spn52 greater than 64 µg/mL.

Values taken from patent US10047105B2, “Gyrase inhibitors” (Merck Sharp & Dohme Corp., priority 2009, dated 2018).
